Data on one compound can be found in US5084469A, “New substituted benzothiazolinones” (Adir et Compagnie, priority 1989, dated 1992).

The experiment in a line: Analgesic activity (Siegmund test, phenyl-p-benzoquinone writhing). Format: in vivo. The settings on record: Mus musculus; oral, mice, 1 hour before i.p. phenyl-p-benzoquinone; writhing counted 5th to 10th minute; read-out: ED50 (dose producing a 50% decrease in the number of writhing movements). The protocol:
The activity against pain was investigated in mice (20-25 g) according to a protocol derived from the technique described by SIEGMUND (SIEGMUND E.A., R.A., CADMUS & GOLU, J. Pharm. Exp. Ther. 119, […], 1954). The mice, randomized in batches of 12 animals, received the treatment orally (excipient for the controls) 1 hour before the intraperitoneal injection of a 0.02% aqueousalcoholic solution of phenyl-p-benzoquinone (Sigma). The writhing movements are counted between the 5th and 10th minute after injection.
The percentage activity obtained was evaluated for each dose (% decrease in the number of writhing movements in the treated animals relative to the controls). An ED50, the dose producing a 50% activity, was determined for each product.

Turning to `O=c1[nH]c2ccc(Cc3ccccc3)cc2s1` [Example 1, 6-Benzylbenzothiazolinone], the median effective dose (ED50) (commonly the dose that gives a 50% effect, or the effect in half of the subjects) is around 2 mg/kg.
